# Assay: Solubility and permeability (Biopharmaceutical Classification System)
# Assay type: physicochemical
smiles,measurement,value
"CC12CC3CC(C)(C1)CC(N)(C3)C2.Cl [Memantine HCl, 1-amino-3,5-dimethyladamantane hydrochloride]",solubility,highly soluble
